According to patent US11542233B2, “Compounds, compositions and methods of use” (Aquinnah Pharmaceuticals, Inc., priority 2016, dated 2023):

System: TDP-43 aggregation in PC12 cells stably expressing GFP-tagged mutant TDP-43 (TDP-43^Q33IK::eGFP)
Assay: In vitro efficacy assay: inhibition of TDP-43 inclusions, concentration-response, fluorescence microscopy
Assay type: cell-based
Conditions: PC12 cells, 1 hour pre-treatment, 15 μM sodium arsenite for 23 hours, 10-point dose response curve
In short: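 PC12 cells stably expressing TDP-43^Q33IK::eGFP pre-treated 1 h with compound, then stressed with 15 μM sodium arsenite for 23 h. Fluorescence microscopy gave the fraction of GFP-positive cells bearing aggregates; IC50 from concentration-response, reported in bins: A <100 nM, B 100–500 nM, C 500 nM–2 μM, D >2 μM.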

SMILES	IC50
CCN(C(=O)c1cc2ccccc2[nH]1)[C@H]1CCC[C@@H](NCc2cccc(F)c2)C1 [Compound 122]	> 2000 nM

Same assay, conditions: Rattus norvegicus, PC-12, PC12 cells, 1 hour pre-treatment, 15 μM sodium arsenite for 23 hours, 10-point dose response curve

SMILES	IC50
CCN(C(=O)c1cc2ncccc2[nH]1)[C@H]1CCC[C@@H](NCc2cc3ccccc3o2)C1 [Compound 444]	< 100 nM
CCN(C(=O)c1nc2cc(F)ccc2[nH]1)[C@H]1CCC[C@@H](NCc2ccc(C#N)cc2)C1 [Compound 527]	< 100 nM
C#CCOc1cccc(CN[C@@H]2CCC[C@H](N(CC)C(=O)c3nc4c([N+](=O)[O-])cccc4[nH]3)C2)c1 [Compound 566]	< 100 nM
CCN(C(=O)c1cc2cnccc2[nH]1)[C@H]1CCC[C@@H](NCc2ccccc2)C1 [Compound 401]	100 to 500 nM
CCN(C(=O)c1cc2ccccc2[nH]1)[C@H]1CCC[C@@H](NCc2nc3ccccc3s2)C1 [Compound 451]	100 to 500 nM
CCN(C(=O)c1nc2c(C#N)cccc2[nH]1)[C@H]1CCC[C@@H](NCc2ccccc2)C1 [Compound 481, N-((1S,3R)-3-(benzylamino)cyclohexyl)-4-cyano-N-ethyl-1H-benzo[d]imidazole-2-carboxamide]	< 100 nM
CCN(C(=O)c1nc2ccccc2[nH]1)[C@H]1CCC[C@@H](NCc2cc3cc(F)ccc3o2)C1 [Compound 478]	< 100 nM
CCN(C(=O)c1cc2cc(F)ccc2[nH]1)[C@H]1CCC[C@@H](NCc2cc3ccccc3o2)C1 [Compound 550]	< 100 nM
CCN(C(=O)c1nc2cc(F)ccc2[nH]1)[C@H]1CCC[C@@H](NCc2ccc(F)cc2)C1 [Compound 526]	< 100 nM
CCN(C(=O)c1cc2ncncc2[nH]1)[C@H]1CCC[C@@H](NCc2ccccc2)C1 [Compound 486]	100 to 500 nM
CCN(C(=O)c1cc2ncccc2[nH]1)[C@H]1CCC[C@@H](NCc2ccnc(OC)c2)C1 [Compound 440]	< 100 nM
CCN(C(=O)c1cc2ccccc2[nH]1)[C@H]1CCC[C@@H](NCc2ccc3ncoc3c2)C1 [Compound 464, N-((1S,3R)-3-((benzo[d]oxazol-6-ylmethyl)amino)cyclohexyl)-N-ethyl-1H-indole-2-carboxamide]	< 100 nM
CCN(C(=O)c1cc2ncccc2[nH]1)[C@H]1CCC[C@@H](NCc2cc(C3CC3)no2)C1 [Compound 435]	< 100 nM
CCN(C(=O)c1cc2ccccc2[nH]1)[C@H]1COC[C@@H](NCc2ccccc2)C1 [Compound 300, N-((3R,5S)-5-(benzylamino)tetrahydro-2H-pyran-3-yl)-N-ethyl-1H-indole-2-carboxamide]	100 to 500 nM
O=C(c1cc2ncccc2[nH]1)N(CC(F)(F)F)[C@H]1CCC[C@@H](NCc2cccc(F)c2)C1 [Compound 422, N-((1S,3R)-3-((3-fluorobenzyl)amino)cyclohexyl)-N-(2,2,2-trifluoroethyl)-1H-pyrrolo[3,2-b]pyridine-2-carboxamide]	< 100 nM
CCN(C(=O)c1nc2cc(F)ccc2[nH]1)[C@H]1CCC[C@@H](NCc2ccccc2)C1 [Compound 483]	< 100 nM
CCN(C(=O)c1cc2c([nH]1)CCCO2)[C@H]1CCC[C@@H](NCc2ccccc2)C1 [Compound 511, N-((1S,3R)-3-(benzylamino)cyclohexyl)-N-ethyl-1,5,6,7-tetrahydropyrano[3,2-b]pyrrole-2-carboxamide]	100 to 500 nM
CCN(C(=O)c1cc2ccccc2[nH]1)[C@H]1CCC[C@@H](N[C@@H](c2cncnc2)C(F)(F)F)C1 (single isomer, unassigned) [Compound 413]	500 to 2000 nM
CCN(C(=O)c1cc2ccccc2[nH]1)[C@H]1CCC[C@@H](N[C@@H]2CCc3cc(F)ccc32)C1 [Compound 125]	100 to 500 nM

SMILES	IC50
CCN(C(=O)c1cc2ccccc2[nH]1)[C@H]1CCC[C@@H](NCc2cnc(C)nc2)C1 [Compound 131]	100 to 500 nM
CCN(C(=O)c1cc2cc(C#N)ccc2[nH]1)[C@H]1CCC[C@@H](NCc2oc3ccccc3c2C#N)C1 [Compound 536, 5-cyano-N-((1S,3R)-3-(((3-cyanobenzofuran-2-yl)methyl)amino)cyclohexyl)-N-ethyl-1H-indole-2-carboxamide]	< 100 nM
CCN(C(=O)c1nc2ccccc2[nH]1)[C@H]1CCC[C@@H](NCc2ccc3nc(C)oc3c2)C1 [Compound 530, N-ethyl-N-((1S,3R)-3-(((2-methylbenzo[d]oxazol-6-yl)methyl)amino)cyclohexyl)-1H-benzo[d]imidazole-2-carboxamide]	< 100 nM
CCN(C(=O)c1cc2ccccc2[nH]1)[C@H]1CCC[C@@H](N[C@@H](c2ccccc2)C(F)(F)F)C1 [Compound 415]	> 2000 nM
CCN(C(=O)c1nc2cc(C#N)ccc2[nH]1)[C@H]1CCC[C@@H](NCc2ccccc2)C1 [Compound 485]	< 100 nM
CCN(C(=O)c1cc2ccccc2[nH]1)[C@H]1COC[C@H](N[C@@H]2CCc3ccccc32)C1 [Compound 506, N-((3R,5R)-5-(((R)-2,3-dihydro-1H-inden-1-yl)amino)tetrahydro-2H-pyran-3-yl)-N-ethyl-1H-indole-2-carboxamide]	500 to 2000 nM
CCN(C(=O)c1cc2ccccc2[nH]1)[C@H]1COC[C@H](NCc2ccccc2)C1 [Compound 301, N-((3R,5R)-5-(benzylamino)tetrahydro-2H-pyran-3-yl)-N-ethyl-1H-indole-2-carboxamide]	> 2000 nM
CCN(C(=O)c1nc2cc(C#N)ccc2[nH]1)[C@H]1CCC[C@@H](NCc2cccc(F)c2)C1 [Compound 516, 5-cyano-N-ethyl-N-((1S,3R)-3-((3-fluorobenzyl)amino)cyclohexyl)-1H-benzo[d]imidazole-2-carboxamide]	< 100 nM
CCN(C(=O)c1cc2cc(C#N)ccc2[nH]1)[C@H]1CCC[C@@H](NCc2cc3ccccc3o2)C1 [Compound 533]	< 100 nM
CCN(C(=O)c1cc2ccccc2[nH]1)[C@H]1CCC[C@@H](NCc2cccc(O)c2)C1 [Compound 427]	< 100 nM
CCN(C(=O)c1cc2ccccc2[nH]1)C1CCC[C@H](NCc2ccc(F)cc2)C1 (stereo partly drawn) [Compound 110]	100 to 500 nM
CCN(C(=O)c1cc2ccccc2[nH]1)[C@H]1CCC[C@@H](NCc2cc(C)no2)C1 [Compound 458]	100 to 500 nM
C#CCCC1(CCOc2cccc(CN[C@@H]3CCC[C@H](N(CC)C(=O)c4cc5ccccc5[nH]4)C3)c2)N=N1 [Compound 426]	< 100 nM
CCN(C(=O)c1cc2ccccc2[nH]1)[C@H]1CCC[C@@H](NCc2ccc(F)cc2)C1 [Compound 123, N-ethyl-N-((1S,3R)-3-((4-fluorobenzyl)amino)cyclohexyl)-1H-indole-2-carboxamide]	< 100 nM
CCN(C(=O)c1nc2ccccc2[nH]1)[C@H]1CCC[C@@H](NCc2cc3ncccc3o2)C1 [Compound 491]	< 100 nM
CCN(C(=O)c1cc2ccccc2[nH]1)[C@H]1CCC[C@@H](NCc2cnoc2)C1 [Compound 453]	100 to 500 nM
CCN(C(=O)c1cc2ccccc2[nH]1)[C@H]1CCC[C@@H](Nc2nnc(C3CC3)s2)C1 [Compound 499, N-((1S,3R)-3-((5-cyclopropyl-1,3,4-thiadiazol-2-yl)amino)cyclohexyl)-N-ethyl-1H-indole-2-carboxamide]	> 2000 nM
CCN(C(=O)c1nc2cc(F)ccc2[nH]1)[C@H]1CCC[C@@H](NCc2cc(C3CC3)on2)C1 [Compound 552, N-((1S,3R)-3-(((5-cyclopropylisoxazol-3-yl)methyl)amino)cyclohexyl)-N-ethyl-5-fluoro-1H-benzo[d]imidazole-2-carboxamide]	< 100 nM
CCN(C(=O)c1cc2ccccc2[nH]1)[C@H]1CCC[C@@H](NCc2ccc(Cl)cc2)C1 [Compound 135]	< 100 nM
